Consider one molecule from patent US6660910B1, “Selection marker” (Syngenta Mogen B.V., priority 1997, dated 2003).

For assay [1], the system named is root segments of Arabidopsis thaliana cv. C24. The assay can be described thus: Arabidopsis root transformation with selection on cyanamide or kanamycin. Format: cell-based. The following applies: pMOG 1156; treatment kanamycin 50 mg/litre; column headed same conc. as treatment in rooting medium.
Assay [2] has the same test system. The assay is described as above. Format: cell-based. Particulars: for Percentage of GUS expressing plants (% of plants staining blue): treatment kanamycin 50 mg/litre; for % Shoots rooting / Nr. of plants (shoots developed into plants and able to root): selection kanamycin 50 mg/litre, rooting medium 25 mg/litre Kanamycin. Here is the method: Described below is the method used for transformation of root segments of Arabidopsis thaliana cv. C24 using Agrobacterium tumefaciens. The binary vectors for this transformation method are identical to those described above.
Six mg of Arabidopsis seeds were germinated in a flask containing liquid Germination Medium (GM) under 16 h light period (1700 lux) at 24° C. and a 8 h dark period at 21° C. at 80 rpm. (The contents of various media can be found in Table 4). Roots of 9 days old seedlings were isolated in a sterile petridish and collected in a drop of Germination Medium (GM). Roots were cut in segments of approximately 3-5 mm and approximately 100 explants were spread evenly on a nylon membrane (O 8 cm) which was placed on plates containing Callus Inducing Medium (CIM). The plates were incubated 3 days under the same conditions as described above.
The Agrobacterium strain used in this study harbored a rifampicin selection marker in a C 58 chromosomal background. The construction of the helper strain MOG101 is described by Hood et al. (1993).
Agrobacteria were grown overnight in LB medium with antibiotics (rifampicin 20 mg/l, kanamycin 100 mg/l). The overnight culture was diluted 1:10 in LB without antibiotics and grown for approximately 3 hours. Bacterial suspensions were centrifuged at 1600×g for 15 minutes at room temperature. Bacteria were resuspended in GM and adjusted to OD600=0.1 and used for cocultivation.
The membrane containing approximately 100 explants was incubated for 2 minutes with the Agrobacterium suspension and dried on sterile filter paper to remove excess of bacteria. The membrane with explants are cultured for 48 h on CIM plates. After rinsing the membrane and explants with liquid GM these were incubated on Shoot Induction Medium (SIM) plates containing several concentrations of cyanamide or kanamycin. After 5 days the membrane with the explants was transferred to the same medium (SIM) for subculture. The second subculture was after 2 weeks. Approximately four weeks after cocultivation 60 shoots per cyanamide concentration were excised and placed on plates with Shoot Elongation Medium (SEM) containing 30 mg/l cyanamide. Shoots which were able to root are tested on their transgenic character by testing leaflets and flowers for expression of the gus gene using a histochemical GUS assay.
Three experiments were performed. Shoots obtained from Exp. 98-8 and 98-11 were transferred to rooting medium (SEM) containing 30 mg/litre cyanamide. Shoots obtained from Exp. 98-13 were transferred to rooting medium containing the same concentration as the selection medium (SIM), for results see Table 4a. The shoots obtained from the kanamycin selection (50 mg/litre) were transferred to rooting medium containing 25 mg/litre Kanamycin.

In the case of `NC[C@H]1O[C@H](O[C@H]2[C@H](O)[C@@H](O[C@H]3O[C@H](CO)[C@@H](O)[C@H](N)[C@H]3O)[C@H](N)C[C@@H]2N)[C@H](O)[C@@H](O)[C@@H]1O` [Kanamycin], the “Percentage of GUS expressing plants (% of plants staining blue)” value is listed as 100% in assay [1]; 100^2% in assay [2] (pMOG 410, shoots rooted on Kanamycin 25 mg/litre); 82-92% in assay [2] (pMOG 1156, column headed C30 in rooting medium). The “% Shoots rooting” value came out at 46.8% in assay [2] (pMOG 1156, Experiment 98-8); 47.5% in assay [2] (pMOG 1156, Experiment 98-11); 20.6% in assay [2] (pMOG 1156, Experiment 98-13). Moreover, the “Nr. of plants (shoots developed into plants and able to root)” value in assay [2] (pMOG 1156, Experiment 98-8) came out at 29; in assay [2] (pMOG 1156, Experiment 98-11), 19; in assay [2] (pMOG 1156, Experiment 98-13), 14.
